Reference: patent publication US20260306492A1 (BRISTOL-MYERS SQUIBB COMPANY, priority 2023, published 2026)

Tests used:
[1] = Milvexian clinical program, adverse drug reactions; type: in vivo, human; conditions: milvexian clinical development program
Description: […]. […] […]. Milvexian in the two Phase II clinical trials (AXIOMATIC-TKR and AXIOMATIC-SSP) focused on different patient populations.

[2] = system: intrinsic and final common pathways of the coagulation cascade (aPTT); assay: Activated partial thromboplastin time (aPTT), AXIOMATIC-TKR Phase II; type: in vivo, human; conditions: 25-200 mg QD/BID
Description: As used herein, the term “activated partial thromboplastin time (aPTT)” refers to a measure of the intrinsic and final common pathways of the coagulation cascade. It represents the time, in seconds, for plasma to clot after addition of phospholipid, an intrinsic pathway activator, and calcium. […] The term ‘partial’ means phospholipid is present but no tissue factor. The normal and reference ranges vary depending on reagent and instrument combinations, particularly with the phospholipid composition.
In some embodiments, aPTT is measured as follows: Plasma samples are incubated with Actin FS aPTT assay reagent containing a standard amount of phospholipid and contact activator (ellagic acid) which activates the intrinsic coagulation pathway. After incubating for 3 minutes, calcium chloride is added to initiate coagulation and formation of a fibrin clot is measured optically. The time to clot formation (measured in seconds) is reported as the Activated Partial Thromboplastin Time (aPTT).
Assessment of the dose-response for the occurrence of any bleeding was a secondary objective.
(§1) PD analyses were performed on the PD analysis set, defined as subjects who had at least one valid blood sample drawn for PD. Descriptive statistics (N, mean, SD, median, range, CV (%) and IQ range) were used to summarize PD response at each nominal sampling time point by treatment group. Changes from baseline were summarized when applicable. PD response outside of limit of quantitation were not to be imputed and were to be noted in the summary statistics.

[3] = system: participants with non-lacunar, non-cardioembolic ischemic stroke or TIA; assay: AXIOMATIC-SSP Phase 2, efficacy (ischemic stroke / covert brain infarction); type: in vivo, human
[4] = Steady-state plasma pharmacokinetics of milvexian 100 mg BID
[5] = system: participants with non-lacunar, non-cardioembolic ischemic stroke or TIA; assay: AXIOMATIC-SSP Phase 2, safety (bleeding, adverse events)
thrombin generation = assay: Thrombin Generation Assay (TGA), AXIOMATIC-TKR Phase II; type: in vivo, human; conditions: 25-200 mg QD/BID
Description: As used herein, “Thrombin Generation Assay (TGA)” is a global coagulation assay that evaluates the thrombogenic capacity of a plasma sample and has been proposed that it may better reflect prothrombotic or hemorrhagic states than conventional clotting assays. In the traditional TGA, coagulation of citrated plasma is initiated through the extrinsic pathway by adding tissue factor, phospholipids, and calcium. For this study, in the in-vitro thrombin generation assay (TGA) using human platelet-rich plasma, and a kaolin slurry was used instead to initiate coagulation through the contact activation pathway. Thrombin generation is continuously monitored through the product released by cleavage of a thrombin-specific fluorogenic substrate. The generated thrombogram is used to determine several relevant parameters, including endogenous thrombin potential, defined as the area under the thrombin concentration vs. time curve. […]
as §1

[6] = Thorough QT (TQT) study in healthy adults; type: in vivo, human; conditions: for ΔΔQTcF, highest upper limit of 2-sided 90% CI: Day 1 and Day 4
Protocol: Pharmacokinetic analysis was performed on the plasma concentrations of each participant.

[7] = Milvexian pharmacokinetics in humans (healthy volunteers / terminal half-life)
Description: (AXIOMATIC-TKR Phase II). […] “Half-life (t1/2),” as used herein, refers to apparent terminal elimination half-life having a mean value calculated using formula t1/2=loge2/λz, where λz is the apparent terminal elimination rate-constant estimated by linear regression using the terminal log-linear phase of the logarithmic (log) transformed concentration vs time data.

[8] = Bleeding in AXIOMATIC-TKR and AXIOMATIC-SSP; type: in vivo, human
Description: […]. […] […]. […] […].

[9] = Milvexian plasma pharmacokinetics, AXIOMATIC-TKR Phase II
Description: (AXIOMATIC-TKR Phase II). […] Assessment of the dose-response for the occurrence of any bleeding was a secondary objective.

[10] = system: participants undergoing primary unilateral elective TKR surgery; assay: Total venous thromboembolism (VTE) in TKR patients, AXIOMATIC-TKR; type: in vivo, human
[11] = cited from earlier work
[12] = 100 mg BID on top of standard care antiplatelet therapy

## C[C@@H]1CCC[C@H](n2cnc(-c3cc(Cl)ccc3-n3cc(Cl)nn3)cc2=O)c2cc(ccn2)-c2c(cnn2C(F)F)NC1=O [Milvexian, (5R,9S)-9-(4-(5-chloro-2-(4-chloro-1H-1,2,3-triazol-1-yl)phenyl)-6-oxopyrimidin-1 (6H)-yl)-2^1-(difluoromethyl)-5-methyl-2^1H-3-aza-1 (4,2)-pyridina-2 (5,4)-pyrazolacyclonaphan-4-one]
[1]
  serious bleeding assessed as adverse drug reactions: gastrointestinal bleeding, procedural hemorrhage, nervous system disorder bleeding (hemorrhagic transformation of ischemic stroke and subdural hematoma) and hematuria
[2]
  aPTT dose dependence: dose related increase in aPTT
[3]; 25 mg QD to 200 mg BID, symptomatic ischaemic stroke and incident covert brain infarction
  dose-response for primary composite efficacy endpoint: no significant dose-response
[3]; all doses except 200 mg BID, pre-specified secondary analysis
  symptomatic ischaemic strokes: numerically fewer symptomatic ischaemic strokes
[3]; milvexian doses
  incident covert brain infarcts versus placebo: no effect compared to placebo
[4]; 100 mg BID as monotherapy
  steady state Cmax, mean (std): 1760 (566) ng/ml
  steady state AUC0-24, mean (std): 36200 (12900) ng*h/mL
[4]; [12]
  steady state Cmax, mean (std): 1670 (536) ng/mL
  steady state AUC0-24, mean (std): 35000 (12100) ng*h/mL
[5]; 25 mg once daily and twice daily
  rate of major bleeding versus placebo: the same as for placebo
[5]; 50 mg twice daily and above
  major bleeding (BARC Type 3/5): Moderate increases in major bleeding
[5]; 200 mg twice daily
  renal serious and non-serious adverse events leading to discontinuation: higher rate
  study drug discontinuations for adverse events: highest rate of study drug discontinuations for adverse events
[5]; all milvexian doses
  ISTH major and CRNM bleeding, and all bleeding: increases in ISTH major and CRNM bleeding (mainly driven by CRNM), as well as all bleeding
  intracranial haemorrhage or symptomatic haemorrhagic transformation of brain infarction (modified BARC type 3c) versus placebo: no increase
[5]; in the study
  fatal bleeding (BARC type 5): no fatal bleeding
[5]; main composite safety endpoint
  dose-response for major bleeding: no significant dose-response
[5]; trial population
  incidence of major bleeding: 1-2%
Thrombin generation
  lag time dose dependence: dose related prolongation in the lag time
  peak thrombin and area under the curve (total thrombin generation): dose related reductions in peak thrombin and area under the curve
  peak thrombin generation dose dependence: clear and robust dose dependent reduction in peak thrombin generation
[6]; 100 mg milvexian
  ΔΔQTcF, highest upper limit of 2-sided 90% CI: 5.16 ms
[6]; 100 mg twice daily
  ΔΔQTcF at milvexian Tmax, upper limit of 90% CI: below 10 ms
[6]; 200 mg milvexian
  ΔΔQTcF, highest upper limit of 2-sided 90% CI: 4.57 ms
[6]; 200 mg twice daily
  ΔΔQTcF at milvexian Tmax, upper limit of 90% CI: below 10 ms
[6]; multiple doses of 100 and 200 mg, healthy adults
  safety and tolerability: generally safe and well tolerated
[6]; therapeutic (100 mg) and supratherapeutic (200 mg) doses
  QT/QTc interval prolongation: does not show evidence of QT/QTc interval prolongation of clinical or regulatory concern
[7]; healthy volunteers, twice daily
  median Tmax: approximately 3 hours
[7]; human, oral
  terminal plasma half-life (T1/2): 13 to 16 h
[8]; AXIOMATIC-TKR / AXIOMATIC-SSP
  fatal bleeding: No fatal bleeding
  symptomatic intracranial hemorrhage: no increases in symptomatic intracranial hemorrhage
[8]; AXIOMATIC-TKR and AXIOMATIC-SSP
  dose-response for bleeding events: No dose-response relationship
[9]; Day 4, 25 mg twice daily
  Tmax: approximately 2 hours
[9]; Day 4, 50 mg once daily
  Tmax: approximately 4 hours
[9]; human, in vivo, po, 100 mg
  Tmax: ~2 h
[9]; human, in vivo, po, 200 mg
  Tmax: ~4 h
[9]; in vivo
  observed concentration, Day 4 12 hours after dosing: higher
  observed concentration, Day 7 12 hours after dosing: lower
  time to steady state of mean trough plasma concentrations: approximately 4 Day
[10]; 50 mg twice daily
  VTE reduction versus enoxaparin: superior to enoxaparin
[10]; 50-200 mg twice daily
  VTE prevention versus enoxaparin 40 mg once daily: superior to enoxaparin 40 mg once daily
[10]; each total daily dose regimen ≥100 mg
  reduction in total VTE versus enoxaparin: statistically significant reductions in total VTE compared to enoxaparin

## COc1ccc(-n2nc(C(N)=O)c3c2C(=O)N(c2ccc(N4CCCCC4=O)cc2)CC3)cc1 [apixaban]
[11]; 2.5 mg twice daily, orthopedic surgery, historical Phase 3
  VTE prevention versus enoxaparin 40 mg once daily: superior to enoxaparin 40 mg once daily
[11]; Phase 2 orthopedic surgery studies and with antiplatelets after an ACS
  bleeding: dose-related bleeding
